Source: patent US11999732B2, “P2X3 receptor antagonists” (RECORDATI INDUSTRIA CHIMICA E FARMACEUTICA SPA, priority 2018, dated 2024)
Where two headings read alike, the source gives them in different places. Blank lines part the entries; values can stand above or below the compound they belong to.

Molecular target: T1, human P2X3 receptor (Homo sapiens, UniProt P56373)
T1 construct: expressed in transfected cells; host or cells: CHO-K1
T1 sequence (P56373 1-397): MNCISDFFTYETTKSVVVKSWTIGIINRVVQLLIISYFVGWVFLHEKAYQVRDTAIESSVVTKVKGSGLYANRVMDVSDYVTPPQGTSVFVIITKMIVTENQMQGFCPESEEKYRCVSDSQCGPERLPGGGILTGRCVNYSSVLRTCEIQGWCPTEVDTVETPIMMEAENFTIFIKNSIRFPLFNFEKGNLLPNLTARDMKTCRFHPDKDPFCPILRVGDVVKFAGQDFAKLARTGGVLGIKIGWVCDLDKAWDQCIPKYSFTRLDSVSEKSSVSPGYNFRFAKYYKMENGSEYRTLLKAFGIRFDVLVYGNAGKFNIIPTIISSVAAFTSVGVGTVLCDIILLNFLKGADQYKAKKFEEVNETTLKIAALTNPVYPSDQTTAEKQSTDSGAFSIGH
Assay: Calcium luminescence (photoprotein) assay in CHO-K1 cells co-expressing human P2X3 receptor, α,β-Met-ATP stimulation, FLEXSTATION readout
Type: cell-based
Details: human P2X3 receptor antagonist activity, CHO-K1 cells, α,β-Met-ATP, read-out: h-P2X3 IC50
Summary of the method: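 CHO-K1 cells co-expressing human P2X3 and a Ca2+-sensitive photoprotein, loaded with coelenterazine in Tyrode's buffer (pH 7.4) for 4 h at 37 °C. Compounds injected 4 min before α,β-Met-ATP stimulation; luminescence recorded, IC50 and pseudo-Hill slope from nonlinear regression of inhibition curves.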

- IC50 (Table 9): 1050 nM
Structure (SMILES): CCC1CCN2C(=O)N(Cc3ccc(Cl)cc3)c3cc(N4CCOCC4)cnc3C2=N1 (stereo not drawn) [Example 154, 5-(4-chlorobenzyl)-10-ethyl-3-(morpholin-4-yl)-5,8,9,10-tetrahydro-6H-pyrido[2,3-e]pyrimido[1,2-c]pyrimidin-6-one]

- IC50 (Table 7): 381 nM
Structure (SMILES): CCc1nc2c3ncc(NCC4COC4)cc3n(Cc3cc(OC)cc(OC)c3)c(=O)n2c1C [Example 76, 6-(3,5-dimethoxybenzyl)-2-ethyl-3-methyl-8-{[(oxetan-3-yl)methyl]amino}imidazo[1,2-c]pyrido[2,3-e]pyrimidin-5(6H)-one]

- IC50 (Table 6): 112 nM
Structure (SMILES): COc1cc(CN2C(=O)N3CC(C4CCCCC4)N=C3c3ncc(N4CCOCC4)cc32)cc(OC)c1 (stereo not drawn) [Example 43, 2-cyclohexyl-6-(3,5-dimethoxybenzyl)-8-(morpholin-4-yl)-2,6-dihydroimidazo[1,2-c]pyrido[2,3-e]pyrimidin-5(3H)-one]

- IC50 (Table 6): 1140 nM
Structure (SMILES): COc1ccc(CN2C(=O)N3CC(C(C)C)N=C3c3ncc(N4CCC(CO)CC4)cc32)cc1 (stereo not drawn) [Example 20]

- IC50 (Table 6): 2070 nM
Structure (SMILES): CCC1CN=C2c3ncc(N4CCOCC4)cc3N(Cc3ccc(OC)cc3)C(=O)N21 (stereo not drawn) [Example 53, 3-ethyl-6-(4-methoxybenzyl)-8-(morpholin-4-y1)-2,6-dihydroimidazo[1,2-c]pyrido[2,3-e]pyrimidin-5(3H)-one]

- IC50 (Table 7): 239 nM
Structure (SMILES): CCc1c(C)nc2c3ncc(NCC4COC4)cc3n(Cc3cc(OC)cc(OC)c3)c(=O)n12 [Example 77, 6-(3,5-dimethoxybenzyl)-3-ethyl-2-methyl-8-{[(oxetan-3-yl)methyl]amino}imidazo[1,2-c]pyrido[2,3-e]pyrimidin-5(6H)-one]

- IC50 (Table 9): 528 nM
Structure (SMILES): O=c1n(Cc2ccc(Cl)cc2)c2cc(N3CCOCC3)cnc2c2nnc(COC3CCOCC3)n12 [Example 188, 6-(4-chlorobenzyl)-8-(morpholin-4-yl)-3-[(tetrahydro-2H-pyran-4-yloxy)methyl]pyrido[2,3-e][1,2,4]triazolo[4,3-c]pyrimidin-5(6H)-one]

- IC50 (Table 9): 608 nM
Structure (SMILES): COc1ccc(Cn2c(=O)n3nc(CC(C)C)nc3c3ncc(N4CCOCC4)cc32)cc1 [Example 156, 6-(4-methoxybenzyl)-2-(2-methylpropyl)-8-(morpholin-4-yl)pyrido[2,3-e][1,2,4]triazolo[1,5-c]pyrimidin-5(6H)-one]

- IC50 (Table 9): 2440 nM
Structure (SMILES): COc1cc(CN2C(=O)N3CC(C)(C)CN=C3c3ncc(N4CCOCC4)cc32)cc(OC)c1 [Example 147, 5-(3,5-dimethoxybenzyl)-9,9-dimethyl-3-(morpholin-4-yl)-5,8,9,10-tetrahydro-6H-pyrido[2,3-e]pyrimido[1,2-c]pyrimidin-6-one]

- IC50 (Table 6): 2440 nM
Structure (SMILES): O=C(C1CN=C2c3ncc(N4CCOCC4)cc3N(Cc3ccc(Cl)cc3)C(=O)N21)N1CCOCC1 (stereo not drawn) [Example 55, 6-(4-chlorobenzyl)-8-(morpholin-4-y1)-3-(morpholin-4-ylcarbonyl)-2,6-dihydroimidazo[1,2-c]pyrido[2,3-e]pyrimidin-5(3H)-one]

- IC50 (Table 8): 309 nM
Structure (SMILES): CC(C)(C)c1nnc2c3ncc(N4CCC(O)CC4)cc3c(Cc3ccc(Cl)cc3)nn12 [Example 140, 1-[5-tert-butyl-8-(4-chlorobenzyl)-3,4,6,7,13-pentazatricyclo[7.4.0.02,6]trideca-1(9),2,4,7,10,12-hexaen-11-yl]piperidin-4-ol]

- IC50 (Table 7): 507 nM
Structure (SMILES): Cc1c(C(C)C)nc2c3ncc(N4CC5(COC5)C4)cc3n(Cc3ccc(Cl)cc3)c(=O)n12 [Example 91, 6-(4-chlorobenzyl)-3-methyl-8-(2-oxa-6-azaspiro[3.3]heptan-6-yl)-2-(propan-2-yl)imidazo[1,2-c]pyrido[2,3-e]pyrimidin-5(6H)-one]

- IC50 (Table 6): 720 nM
Structure (SMILES): CC(C)CCC1CN2C(=O)N(Cc3ccc(Cl)cc3)c3cc(N4CCOCC4)cnc3C2=N1 (stereo not drawn) [Example 62, 6-(4-chlorobenzyl)-2-(3-methylbutyl)-8-(morpholin-4-yl)-2,6-dihydroimidazo[1,2-c]pyrido[2,3-e]pyrimidin-5(3H)-one]

- IC50 (Table 6): 143 nM
Structure (SMILES): COc1cc(CN2C(=O)N3CC(CC(C)C)N=C3c3ncc(N4CCOCC4)cc32)cc(OC)c1 (stereo not drawn) [Example 22, 6-(3,5-dimethoxybenzyl)-2-(2-methylpropyl)-8-(morpholin-4-yl)-2,6-dihydroimidazo[1,2-c]pyrido[2,3-e]pyrimidin-5(3H)-one]

- IC50 (Table 8): 437 nM
Structure (SMILES): Cc1ccc(Cc2nn3c(C(C)C)nnc3c3ncc(N4CCOCC4)cc23)cc1 [Example 115, 6-(4-methylbenzyl)-8-(morpholin-4-yl)-3-(propan-2-yl)pyrido[2,3-d][1,2,4]triazolo[4,3-b]pyridazine]

- IC50 (Table 9): 2570 nM
Structure (SMILES): COc1ccc(Cn2c(=O)n3c(C(C)(C)C)nnc3c3ncc(N)cc32)cc1 [Example 176, 8-amino-3-tert-butyl-6-(4-methoxybenzyl)pyrido[2,3-e][1,2,4]triazolo[4,3-c]pyrimidin-5(6H)-one]

- IC50 (Table 8): 2820 nM
Structure (SMILES): COCC1CN(c2cnc3c(c2)c(Cc2ccc(OC)cc2)nn2c(CC(C)C)nnc32)C1 [Example 124, 6-(4-methoxybenzyl)-8-[3-(methoxymethyl)azetidin-1-yl]-3-(2-methylpropyl)pyrido[2,3-d][1,2,4]triazolo[4,3-b]pyridazine]

- IC50 (Table 6): 5140 nM
Structure (SMILES): CCC1CN2C(=O)N(Cc3ccc(OC)cc3)c3cc(N4CC(COC)C4)cnc3C2=N1 (stereo not drawn) [Example 39, 2-ethyl-6-(4-methoxybenzyl)-8-[3-(methoxymethyl)azetidin-1-yl]-2,6-dihydroimidazo[1,2-c]pyrido[2,3-e]pyrimidin-5(3H)-one]

More lines, now with the values behind:

Structure (SMILES): Cc1c(C(C)C)nc2c3ncc(C(=O)N4CCC(O)CC4)cc3n(Cc3ccc(Cl)cc3)c(=O)n12 [Example 94, 6-(4-chlorobenzyl)-8-[(4-hydroxypiperidin-1-yl)carbonyl]-3-methyl-2-(propan-2-yl)imidazo[1,2-c]pyrido[2,3-e]pyrimidin-5(6H)-one]
- IC50 (Table 7): 8260 nM

Structure (SMILES): CCn1nccc1-c1nnc2c3ncc(N4CCOCC4)cc3n(Cc3ccc(Cl)cc3)c(=O)n12 [Example 107, 6-(4-chlorobenzyl)-3-(1-ethyl-1h-pyrazol-5-yl)-8-(morpholin-4-yl)pyrido[2,3-e][1,2,4]triazolo[4,3-c]pyrimidin-5(6H)-one]
- IC50 (Table 7): 1320 nM

Structure (SMILES): CC(C)c1nnc2c3ncc(N4CCC(O)CC4)cc3n(Cc3ccc(Cl)cc3)c(=O)n12 [Example 171, 6-(4-chlorobenzyl)-8-(4-hydroxypiperidin-1-yl)-3-(propan-2-yl)pyrido[2,3-e][1,2,4]triazolo[4,3-c]pyrimidin-5(6H)-one]
- IC50 (Table 9): 700 nM

Structure (SMILES): COc1cc(Cn2c(=O)n3c(C)c(C)nc3c3ncc(NCC4COC4)cc32)cc(OC)c1 [Example 70, 6-(3,5-dimethoxybenzyl)-2,3-dimethyl-8-{[(oxetan-3-yl)methyl]amino}imidazo[1,2-c]pyrido[2,3-e]pyrimidin-5(6H)-one]
- IC50 (Table 7): 139 nM

Structure (SMILES): Cc1ccc(Cc2nn3c(CC4CCOCC4)nnc3c3ncc(N4CCOCC4)cc23)cc1 [Example 117, 6-(4-methylbenzyl)-8-(morpholin-4-yl)-3-(tetrahydro-2H-pyran-4-ylmethyl)pyrido[2,3-d][1,2,4]triazolo[4,3-b]pyridazine]
- IC50 (Table 8): 197 nM

Structure (SMILES): COc1ncc2c(n1)c1nnc(C(C)(C)C)n1c(=O)n2Cc1ccc(Cl)cc1 [Example 168, 3-tert-butyl-6-(4-chlorobenzyl)-9-methoxypyrimido[4,5-e][1,2,4]triazolo[4,3-c]pyrimidin-5(6H)-one]
- IC50 (Table 9): 1390 nM

Structure (SMILES): COc1ccc(Cc2nn3c(CC4CCOCC4)nnc3c3ncc(N4CCOCC4)cc23)cc1 [Example 125, 6-(4-methoxybenzyl)-8-(morpholin-4-yl)-3-(tetrahydro-2H-pyran-4-ylmethyl)pyrido[2,3-d][1,2,4]triazolo[4,3-b]pyridazine]
- IC50 (Table 8): 538 nM

Structure (SMILES): COc1ccc(Cc2nn3c(C(C)C)nnc3c3ncc(N4CCOCC4)cc23)cc1 [Example 122, 6-(4-methoxybenzyl)-8-(morpholin-4-yl)-3-(propan-2-yl)pyrido[2,3-d][1,2,4]triazolo[4,3-b]pyridazine]
- IC50 (Table 8): 1810 nM

Structure (SMILES): COc1ccc(CN2C(=O)N3C(=NCC3COC(C)(C)C)c3ncc(N4CCOCC4)cc32)cc1 (stereo not drawn) [Example 67, 3-(tert-butoxymethyl)-6-(4-methoxybenzyl)-8-(morpholin-4-yl)-2,6-dihydroimidazo[1,2-c]pyrido[2,3-e]pyrimidin-5(3H)-one]
- IC50 (Table 6): 218 nM

Structure (SMILES): CC(C)(C)OC(=O)NC1CCN(c2cnc3c(c2)c(Cc2ccc(Cl)cc2)nn2c(C(C)(C)C)nnc32)CC1 [Example 138, tert-butyl n-[1-[5-tert-butyl-8-(4-chlorobenzyl)-3,4,6,7,13-pentazatricyclo[7.4.0.02,6]trideca-1(9),2,4,7,10,12-hexaen-11-yl]-4-piperidyl]carbamate]
- IC50 (Table 8): 3340 nM

Structure (SMILES): Cc1ccc(Cc2nn3c(CC4CCCCC4)nnc3c3ncc(N4CCOCC4)cc23)cc1 [Example 137, 3-(cyclohexylmethyl)-6-(4-methylbenzyl)-8-(morpholin-4-yl)pyrido[2,3-d][1,2,4]triazolo[4,3-b]pyridazine]
- IC50 (Table 8): 234 nM

Structure (SMILES): Clc1ccc(Cc2nn3c(CC4CCOCC4)nnc3c3ncc(N4CCOCC4)cc23)cc1 [Example 126, 6-(4-chlorobenzyl)-8-(morpholin-4-yl)-3-(tetrahydro-2H-pyran-4-ylmethyl)pyrido[2,3-d][1,2,4]triazolo[4,3-b]pyridazine]
- IC50 (Table 8): 20.6 nM
